Reference: PubChem BioAssay AID248 (DTP/NCI, 2004)
“And” between values parts separate entries of the source, which are not always exact repeats. Identical values can stand only once. Toxic doses and inconclusive results are not listed. Cut-off read from the data, not from the text of the source: active = T/C of 150% or more; inactive = T/C below 125%.

System: L1210 leukemia ip in BDF1 mice, survival T/C
Assay: NCI In Vivo Anticancer Drug Screen. Data for tumor model L1210 Leukemia (intraperitoneal) in B6D2F1 (BDF1) mice
Details: endpoint: mean survival time, higher = longer survival
Method in brief: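 Mice bearing the transplanted tumor received compound or vehicle. Survival of the treated group was divided by that of the vehicle-treated control group to give the ratio.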

[1] = dose: 100.0 mg/kg/injection, schedule: Q04DX002 (ip), vehicle: saline with Tween-80
[2] = dose: 200.0 mg/kg/injection, schedule: Q04DX002 (ip), vehicle: saline with Tween-80
[3] = dose: 100.0 mg/kg/injection, schedule: Q01DX001 (ip), vehicle: saline
[4] = dose: 200.0 mg/kg/injection, schedule: Q01DX001 (ip), vehicle: saline
[5] = dose: 400.0 mg/kg/injection, schedule: Q01DX001 (ip), vehicle: saline
[6] = dose: 100.0 mg/kg/injection, schedule: Q04DX003 (ip), vehicle: Klucel (hydroxypropylcellulose) (HPC)
[7] = dose: 100.0 mg/kg/injection, schedule: Q01DX001 (ip), vehicle: Klucel (hydroxypropylcellulose) (HPC)
[8] = dose: 100.0 mg/kg/injection, schedule: Q01DX009 (ip), vehicle: Klucel (hydroxypropylcellulose) (HPC)
[9] = dose: 200.0 mg/kg/injection, schedule: Q01DX001 (ip), vehicle: Klucel (hydroxypropylcellulose) (HPC)
[10] = dose: 200.0 mg/kg/injection, schedule: Q01DX009 (ip), vehicle: Klucel (hydroxypropylcellulose) (HPC)
[11] = dose: 400.0 mg/kg/injection, schedule: Q01DX001 (ip), vehicle: Klucel (hydroxypropylcellulose) (HPC)
[12] = dose: 400.0 mg/kg/injection, schedule: Q01DX009 (ip), vehicle: Klucel (hydroxypropylcellulose) (HPC)
[13] = dose: 100.0 mg/kg/injection, schedule: Q01DX009 (ip), vehicle: saline with Tween-80
[14] = dose: 200.0 mg/kg/injection, schedule: Q01DX009 (ip), vehicle: saline with Tween-80
[15] = dose: 400.0 mg/kg/injection, schedule: Q01DX009 (ip), vehicle: saline with Tween-80
[16] = dose: 100.0 mg/kg/injection, schedule: Q04DX003 (ip), vehicle: saline with Tween-80
[17] = dose: 200.0 mg/kg/injection, schedule: Q04DX003 (ip), vehicle: saline with Tween-80
[18] = dose: 100.0 mg/kg/injection, schedule: Q04DX002 (ip), vehicle: Klucel (hydroxypropylcellulose) (HPC)
[19] = dose: 200.0 mg/kg/injection, schedule: Q04DX002 (ip), vehicle: Klucel (hydroxypropylcellulose) (HPC)
[20] = dose: 400.0 mg/kg/injection, schedule: Q04DX002 (ip), vehicle: Klucel (hydroxypropylcellulose) (HPC)
[21] = dose: 200.0 mg/kg/injection, schedule: Q04DX003 (ip), vehicle: Klucel (hydroxypropylcellulose) (HPC)
[22] = dose: 400.0 mg/kg/injection, schedule: Q04DX003 (ip), vehicle: Klucel (hydroxypropylcellulose) (HPC)
[23] = dose: 400.0 mg/kg/injection, schedule: Q04DX003 (ip), vehicle: saline with Tween-80

Measured: T/C

CCC(C)(C(=O)OCCOCCCl)c1cccc2ccccc12 (stereo unspecified)
inactive: [1] 95 % of control | [2] 104 % of control | dose: 400.0 mg/kg/injection, schedule: Q04DX002 (ip), vehicle: saline with Tween-80 101 % of control

Clc1ccc2c[n+]3ccccc3cc2c1
inactive: dose: 2.0 mg/kg/injection, schedule: Q01DX Z (ip), vehicle: carboxymethylcellulose (CMC) 102 % of control | dose: 4.0 mg/kg/injection, schedule: Q01DX Z (ip), vehicle: carboxymethylcellulose (CMC) 92 % of control | dose: 8.0 mg/kg/injection, schedule: Q01DX Z (ip), vehicle: carboxymethylcellulose (CMC) 103 % of control | dose: 16.0 mg/kg/injection, schedule: Q01DX Z (ip), vehicle: carboxymethylcellulose (CMC) 105 % of control

CC1(C)C2CCC1(C)C(C(=O)C(F)(F)F)C2=O.CC1(C)C2CCC1(C)C(C(=O)C(F)(F)F)C2=O.[Co] (stereo unspecified)
inactive: dose: 100.0 mg/kg/injection, schedule: Q04DX002 (ip), vehicle: saline 110 % of control | dose: 200.0 mg/kg/injection, schedule: Q04DX002 (ip), vehicle: saline 94 % of control

CCCCCCCC/C(C=O)=C\c1ccc(C)cc1
inactive: [3] 86 % of control | [4] 102 % of control | [5] 87 % of control

Cc1c[n+]([O-])ccc1N=Nc1ccc(N(C)C)cc1
inactive: dose: 25.0 mg/kg/injection, schedule: Q04DX003 (ip), vehicle: Klucel (hydroxypropylcellulose) (HPC) 104 % of control | dose: 50.0 mg/kg/injection, schedule: Q04DX003 (ip), vehicle: Klucel (hydroxypropylcellulose) (HPC) 110 % of control | [6] 106 % of control and 107 % of control

O=NN(CCCl)C(=O)Nc1ncc([N+](=O)[O-])s1
inactive: dose: 8.0 mg/kg/injection, schedule: Q01DX001 (ip), vehicle: other 105 % of control | dose: 16.0 mg/kg/injection, schedule: Q01DX001 (ip), vehicle: other 105 % of control | dose: 31.0 mg/kg/injection, schedule: Q01DX001 (ip), vehicle: other 110 % of control | dose: 62.0 mg/kg/injection, schedule: Q01DX001 (ip), vehicle: other 109 % of control | dose: 125.0 mg/kg/injection, schedule: Q01DX001 (ip), vehicle: other 116 % of control

CCCCCCc1c(C)nc(N)[nH]c1=O
inactive: [7] 92 % of control | [8] 105 % of control | [9] 89 % of control | [10] 100 % of control | [11] 92 % of control | [12] 97 % of control

O=C1CCC(C(=O)NC(Cc2cncn2Cc2ccccc2)C(=O)NC(COCc2ccccc2)Cc2c[nH]c3ccccc23)N1 (stereo unspecified)
inactive: [13] 96 % of control | [14] 104 % of control | [15] 94 % of control

Clc1ccc2c(NCCc3cnc[nH]3)ccnc2c1
inactive: [13] 94 % of control | [14] 94 % of control

CC(C)(C)c1cccc(S(=O)(=O)Oc2ccccc2[N+](=O)[O-])c1
inactive: [8] 103 % of control | [10] 93 % of control | [12] 95 % of control

C=CCc1ccc(OC(=O)Nc2cccc(C)c2)c(OC)c1
inactive: dose: 50.0 mg/kg/injection, schedule: Q01DX009 (ip), vehicle: saline with Tween-80 98 % of control | [13] 112 % of control | [1] 99 % of control | [14] 101 % of control and 102 % of control | [2] 89 % of control

COc1cc(C)c(O)c(C[P+](c2ccccc2)(c2ccccc2)c2ccccc2)c1
inactive: [16] 91 % of control | [17] 94 % of control

O=C(O)C1C2OC(C(Cl)C2Cl)C1C(=O)O (stereo unspecified)
inactive: [18] 98 % of control | [19] 103 % of control | [20] 95 % of control

O=C(COc1ccc(Cl)cc1)Nc1ccc[n+](Cc2ccc(S(=O)(=O)F)cc2)c1
inactive: [8] 105 % of control | [10] 101 % of control

COC(=O)c1c[nH]c2ccccc2c1=O
inactive: [8] 106 % of control | [6] 96 % of control | [10] 95 % of control | [21] 107 % of control | [12] 108 % of control | [22] 91 % of control

CC(O)(c1ccccc1)c1ccccc1
inactive: dose: 50.0 mg/kg/injection, schedule: Q01DX001 (ip), vehicle: saline 95 % of control | [3] 101 % of control | [16] 100 % of control | [4] 97 % of control | [17] 100 % of control | [5] 97 % of control | [23] 110 % of control

COc1ccc(CCN(C)C(c2ccccc2)c2ccccc2)cc1OC
inactive: [3] 100 % of control | [4] 96 % of control | [5] 104 % of control

CC12CCC(=O)C=C1CCC1C2CCC2(C)C(OC(=O)CN3CC3)CCC12 (stereo unspecified)
inactive: dose: 100.0 mg/kg/injection, schedule: Q01DX001 (sc), vehicle: steriod suspending solution 101 % of control | dose: 200.0 mg/kg/injection, schedule: Q01DX001 (sc), vehicle: steriod suspending solution 97 % of control | dose: 400.0 mg/kg/injection, schedule: Q01DX001 (sc), vehicle: steriod suspending solution 103 % of control

CCCCC/C=C/c1c(C)[nH]c2ccccc2c1=O
inactive: [8] 118 % of control | [6] 100 % of control | [10] 94 % of control | [21] 96 % of control | [12] 99 % of control | [22] 89 % of control

CC(C)/C=C/C1(C(C)C)C(=O)NC(=S)NC1=O
inactive: dose: 75.0 mg/kg/injection, schedule: Q01DX001 (ip), vehicle: saline 95 % of control | dose: 150.0 mg/kg/injection, schedule: Q01DX001 (ip), vehicle: saline 100 % of control | dose: 300.0 mg/kg/injection, schedule: Q01DX001 (ip), vehicle: saline 98 % of control

COC(=O)c1ccccc1C1(c2ccccc2C(=O)OC)OC(=O)c2ccccc21
inactive: [13] 97 % of control | [16] 98 % of control | [14] 101 % of control | [17] 93 % of control | [15] 97 % of control | [23] 96 % of control

COc1ccccc1OC1CCCCC1OS(C)(=O)=O (stereo unspecified)
inactive: [7] 95 % of control | [8] 95 % of control | [6] 102 % of control | [9] 105 % of control | [10] 101 % of control | [21] 101 % of control | [11] 95 % of control | [12] 95 % of control | [22] 95 % of control

Clc1cccc(NC(c2ccccc2)=[N+]2CCCCC2)c1
inactive: [18] 95 % of control | [19] 106 % of control | [20] 113 % of control

C=COCCCCCC(C)C
inactive: dose: 50.0 mg/kg/injection, schedule: Q01DX009 (ip), vehicle: Klucel (hydroxypropylcellulose) (HPC) 96 % of control | [8] 106 % of control | [6] 107 % of control | [10] 91 % of control | [21] 105 % of control | [22] 104 % of control

CC(C)CN(CC(C)C)c1nn[nH]n1
inactive: [6] 92 % of control | [21] 98 % of control | [22] 98 % of control
